Reference: ChEMBL document CHEMBL1135808, “A new type of mixed anhydride and its applications to the synthesis of 7-substituted 8-chloro-5,5-dioxoimidazo[1,2-b][1,4,2]benzodithiazines with in vitro antitumor activity” (2002)

Columns and labels:
[1] = system: SK-MEL-5; test: In vitro total growth inhibition against melanoma SK-MEL-5 cell lines was reported.; type: functional; conditions: Homo sapiens, read-out: Log TGI (converted)
[2] = system: SW-620; test: In vitro growth inhibition against colon cancer SW620 cell line was reported.; type: functional; conditions: Homo sapiens
[3] = system: IGROV-1; test: In vitro growth inhibition against ovarian cancer IGROV1 cell line was reported.; type: functional; conditions: Homo sapiens
[4] = system: TK-10; test: In vitro total growth inhibition against renal cancer TK-10 cell lines was reported.; type: functional; conditions: Homo sapiens, read-out: Log TGI (converted)
[5] = system: HOP-92; test: In vitro total growth inhibition against non-small-cell lung cancer HOP-92 cell lines was reported.; conditions: Homo sapiens, read-out: Log TGI (converted)
[6] = system: COLO 205; test: In vitro growth inhibition against colon cancer COLO 205 cell line was reported.; type: functional; conditions: Homo sapiens
[7] = system: TK-10; test: In vitro growth inhibition against renal cancer TK-10 cell line was reported.; type: functional; conditions: Homo sapiens
[8] = system: HOP-62; test: Log of molar concentration leading to 50% cell death against non-small-cell lung cancer HOP-62 cell line was reported; type: functional; conditions: Homo sapiens, read-out: Log LC50 (the source's name) (converted)
[9] = system: NCI-H46; test: Log of molar concentration leading to 50% cell death against non-small-cell lung cancer […] cell line was reported; type: functional; conditions: Homo sapiens, read-out: Log LC50 (the source's name) (converted)
[10] = organism: Homo sapiens; test: In vitro total growth inhibition against non-small-cell lung cancer EKVX cell lines was reported.; type: functional; conditions: read-out: Log TGI (converted)
[11] = system: SF-539; test: In vitro total growth inhibition against CNS cancer SF-539 cell lines was reported.; type: functional; conditions: Homo sapiens, read-out: Log TGI (converted)
[12] = system: HCT-116; test: In vitro total growth inhibition against colon cancer HCT116 cell lines was reported.; type: functional; conditions: Homo sapiens, read-out: Log TGI (converted)
[13] = system: SF-295; test: In vitro total growth inhibition against CNS cancer SF-295 cell lines was reported.; type: functional; conditions: Homo sapiens, read-out: Log TGI (converted)
[14] = system: SF-268; test: In vitro growth inhibition against CNS cancer SF-268 cell line was reported.; type: functional; conditions: Homo sapiens
[15] = system: NCI/ADR-RES; test: In vitro growth inhibition against breast cancer NCI/ADR-RES cell line was reported.; type: functional; conditions: Homo sapiens
[16] = system: SK-MEL-5; test: Log of molar concentration leading to 50% cell death against melanoma SK-MEL-5 cell line was reported; type: functional; conditions: Homo sapiens, read-out: Log LC50 (the source's name) (converted)
[17] = system: EKVX; test: In vitro growth inhibition against non-small-cell lung cancer EKVX cell line was reported.; type: functional; conditions: Homo sapiens
[18] = system: OVCAR-5; test: In vitro growth inhibition against ovarian cancer OVCAR-5 cell line was reported.; type: functional; conditions: Homo sapiens
[19] = system: OVCAR-5; test: In vitro total growth inhibition against ovarian cancer OVCAR-5 cell lines was reported.; type: functional; conditions: Homo sapiens, read-out: Log TGI (converted)
[20] = system: PC-3; test: In vitro growth inhibition against prostate cancer PC-3 cell line was reported.; type: functional; conditions: Homo sapiens
[21] = system: SK-MEL-2; test: Log of molar concentration leading to 50% cell death against melanoma SK-MEL-2 cell line was reported; type: functional; conditions: Homo sapiens, read-out: Log LC50 (the source's name) (converted)
[22] = system: SF-539; test: Log of molar concentration leading to 50% cell death against CNS cancer SF-539 cell line was reported; type: functional; conditions: Homo sapiens, read-out: Log LC50 (the source's name) (converted)
[23] = system: OVCAR-4; test: Log of molar concentration leading to 50% cell death against ovarian cancer OVCAR-4 cell line was reported; type: functional; conditions: Homo sapiens, read-out: Log LC50 (the source's name) (converted)
[24] = system: Tumor Cell line; test: In vitro inhibition of 50% cell growth was reported as log of molar concentration for 60 cell lines.; type: functional; conditions: Homo sapiens
[25] = system: MDA-MB-231; test: Log of molar concentration leading to 50% cell death against breast cancer MDA-MB-231/ATCC cell line was reported; type: functional; conditions: Homo sapiens, read-out: Log LC50 (the source's name) (converted)
[26] = system: TK-10; test: Log of molar concentration leading to 50% cell death against renal cancer TK-10 cell line was reported; type: functional; conditions: Homo sapiens, read-out: Log LC50 (the source's name) (converted)
[27] = system: EKVX; test: Log of molar concentration leading to 50% cell death against non-small-cell lung cancer EKVX cell line was reported; type: functional; conditions: Homo sapiens, read-out: Log LC50 (the source's name) (converted)
[28] = system: CCRF-CEM; test: In vitro total growth inhibition against leukemia CCRF cell lines was reported.; type: functional; conditions: Homo sapiens, read-out: Log TGI (converted)
[29] = system: NCI/ADR-RES; test: In vitro total growth inhibition against breast cancer NCI/ADR-RES cell lines was reported.; type: functional; conditions: Homo sapiens, read-out: Log TGI (converted)
[30] = system: RXF 393; test: In vitro total growth inhibition against renal cancer RXF 393 cell lines was reported.; type: functional; conditions: Homo sapiens, read-out: Log TGI (converted)
[31] = system: T47D; test: In vitro total growth inhibition against breast cancer […] cell lines was reported.; type: functional; conditions: Homo sapiens, read-out: Log TGI (converted)
[32] = system: UACC-257; test: Log of molar concentration leading to 50% cell death against melanoma UACC-257 cell line was reported; type: functional; conditions: Homo sapiens, read-out: Log LC50 (the source's name) (converted)
[33] = system: NCI-H322M; test: In vitro total growth inhibition against non-small-cell lung cancer NCI-H322M cell lines was reported.; type: functional; conditions: Homo sapiens, read-out: Log TGI (converted)
[34] = system: UO-31; test: In vitro growth inhibition against renal cancer UO-31 cell line was reported.; type: functional; conditions: Homo sapiens
[35] = system: MOLT-4; test: In vitro growth inhibition against leukemia MOLT-4 cell line was reported.; type: functional; conditions: Homo sapiens
[36] = system: K562; test: In vitro growth inhibition against leukemia K-562 cell line was reported.; type: functional; conditions: Homo sapiens
[37] = system: SK-MEL-2; test: In vitro growth inhibition against melanoma SK-MEL-2 cell line was reported.; type: functional; conditions: Homo sapiens
[38] = system: CAKI-1; test: In vitro total growth inhibition against renal cancer CAKI-1cell lines was reported.; type: functional; conditions: Homo sapiens, read-out: Log TGI (converted)
[39] = system: OVCAR-8; test: Log of molar concentration leading to 50% cell death against ovarian cancer OVCAR-8 cell line was reported; type: functional; conditions: Homo sapiens, read-out: Log LC50 (the source's name) (converted)
[40] = system: SF-295; test: Log of molar concentration leading to 50% cell death against CNS cancer SF-295 cell line was reported; type: functional; conditions: Homo sapiens, read-out: Log LC50 (the source's name) (converted)
[41] = system: NCI-H522; test: In vitro growth inhibition against non-small-cell lung cancer […] cell line was reported.; type: functional; conditions: Homo sapiens
[42] = system: UACC-62; test: In vitro growth inhibition against melanoma UACC-62 cell line was reported.; type: functional; conditions: Homo sapiens
[43] = system: SNB-75; test: In vitro growth inhibition against CNS cancer SNB-75 cell line was reported.; type: functional; conditions: Homo sapiens
[44] = system: MDA-MB-435; test: In vitro growth inhibition against breast cancer MDA-MB-435 cell line was reported.; conditions: Homo sapiens
[45] = system: OVCAR-3; test: In vitro total growth inhibition against ovarian cancer OVCAR-3 cell lines was reported.; type: functional; conditions: Homo sapiens, read-out: Log TGI (converted)
[46] = system: HL-60; test: In vitro total growth inhibition against leukemia HL-60(TB) cell lines was reported.; type: functional; conditions: Homo sapiens, read-out: Log TGI (converted)
[47] = system: UACC-62; test: Log of molar concentration leading to 50% cell death against melanoma UACC-62 cell line was reported; type: functional; conditions: Homo sapiens, read-out: Log LC50 (the source's name) (converted)
[48] = system: COLO 205; test: In vitro total growth inhibition against colon cancer COLO 205 cell lines was reported.; type: functional; conditions: Homo sapiens, read-out: Log TGI (converted)
[49] = system: 786-0; test: In vitro growth inhibition against renal cancer […] cell line was reported.; type: functional; conditions: Homo sapiens
[50] = system: SNB-75; test: In vitro total growth inhibition against CNS cancer SNB-75 cell lines was reported.; type: functional; conditions: Homo sapiens, read-out: Log TGI (converted)
[51] = system: MDA-N; test: In vitro growth inhibition against breast cancer MDA-N cell line was reported.; type: functional; conditions: Homo sapiens
[52] = system: HCT-116; test: In vitro growth inhibition against colon cancer HCT116 cell line was reported.; type: functional; conditions: Homo sapiens
[53] = system: U-251; test: In vitro total growth inhibition against CNS cancer U251 cell lines was reported.; type: functional; conditions: Homo sapiens, read-out: Log TGI (converted)
[54] = system: A549; test: In vitro total growth inhibition against non-small-cell lung cancer A 549/ATCC cell lines was reported.; type: functional; conditions: Homo sapiens, read-out: Log TGI (converted)
[55] = system: BT-549; test: In vitro growth inhibition against breast cancer BT 549 cell line was reported.; type: functional; conditions: Homo sapiens
[56] = system: RPMI-8226; test: In vitro total growth inhibition against leukemia […] cell lines was reported.; type: functional; conditions: Homo sapiens, read-out: Log TGI (converted)
[57] = system: HCT-15; test: In vitro total growth inhibition against colon cancer HCT-15 cell lines was reported.; type: functional; conditions: Homo sapiens, read-out: Log TGI (converted)
[58] = system: SW-620; test: In vitro total growth inhibition against colon cancer SW-620 cell lines was reported.; type: functional; conditions: Homo sapiens, read-out: Log TGI (converted)
[59] = system: NCI-H322M; test: In vitro growth inhibition against non-small-cell lung cancer […] cell line was reported.; type: functional; conditions: Homo sapiens

## O=C(Nc1nccs1)c1cc2c(cc1Cl)Sc1nccn1S2(=O)=O
[1]
  TGI: 30.2 µM
[2]
  GI50: 17 µM
[3]
  GI50: 11.7 µM
[4]
  TGI: 34.7 µM
[5]
  TGI: 39.8 µM
[6]
  GI50: 17 µM
[7]
  GI50: 19.1 µM
[8]
  CC50: 61.7 µM
[9]
  CC50: 55 µM
[10]
  TGI: 44.7 µM
[11]
  TGI: 37.2 µM
[12]
  TGI: 29.5 µM
[13]
  TGI: 34.7 µM
[14]
  GI50: 19.1 µM
[15]
  GI50: 19.1 µM
[16]
  CC50: 55 µM
[17]
  GI50: 20.4 µM
[18]
  GI50: 21.9 µM
[19]
  TGI: 45.7 µM
[20]
  GI50: 17 µM
[21]
  CC50: 63.1 µM
[22]
  CC50: 72.4 µM
[23]
  CC50: 91.2 µM
[24]
  GI50: 28.2 µM
[25]
  CC50: 67.6 µM
[26]
  CC50: 63.1 µM
[27]
  CC50: 97.7 µM
[28]
  TGI: 24.5 µM
[29]
  TGI: 44.7 µM
[30]
  TGI: 39.8 µM
[31]
  TGI: 64.6 µM
[32]
  CC50: 52.5 µM
[33]
  TGI: 33.9 µM
[34]
  GI50: 4.37 µM
[35]
  GI50: 19.1 µM
[36]
  GI50: 15.8 µM
[37]
  GI50: 17.4 µM
[38]
  TGI: 37.2 µM
[39]
  CC50: 79.4 µM
[40]
  CC50: 64.6 µM
[41]
  GI50: 1.23 µM
[42]
  GI50: 14.5 µM
[43]
  GI50: 18.6 µM
[44]
  GI50: 17.4 µM
[45]
  TGI: 28.2 µM
[46]
  TGI: 30.9 µM
[47]
  CC50: 52.5 µM
[48]
  TGI: 30.9 µM
[49]
  GI50: 15.8 µM
[50]
  TGI: 35.5 µM
[51]
  GI50: 17.8 µM
[52]
  GI50: 16.2 µM
[53]
  TGI: 30.9 µM
[54]
  TGI: 63.1 µM
[55]
  GI50: 18.2 µM
[56]
  TGI: 23.4 µM
[57]
  TGI: 33.9 µM
[58]
  TGI: 41.7 µM
[59]
  GI50: 17.4 µM
